Data: patent US4493843A, “Indole and indoline carboxylic acid compounds and method of use” (May & Baker Limited, priority 1980, dated 1985)
Where a name gives a salt, the structure may show the parent alone. Read-outs that look alike come from different tables or passages of the source.

Key:
[1] = system: serum cholesterol and serum triglycerides; assay: Hypolipidaemic activity in rats (compound in diet, last 7 of 10 days); assay type: in vivo, Male Wistar rats; conditions: Rattus norvegicus, po, 168 h, 7 days; for change in vivo at 0.2 % strength: 0.2 % w/w dose in diet; for change in vivo at 0.03 % strength: 0.03 % w/w dose in diet; for change in vivo at 0.1 % strength: 0.1 % w/w dose in diet
Description: Hypolipidaemic Activity in Rats
Male Wistar rats each weighing between 120 and 150 g were caged in groups of eight and fed a powdered diet for 10 days. For the last 7 days of that period the test compound was administered orally by mixing the compound in the diet and allowing the animals to feed normally. Food consumption was measured on day 9 for each group.
At noon on day 10 the animals were killed by inhalation of carbon dioxide from solid carbon dioxide. A sample of blood was removed by cardiac puncture and the serum cholesterol and serum triglycerides were analysed by means of an autoanalyser.
Control groups (receiving only the normal, unmedicated diet) were included with each test.
The percentage reductions in the concentrations of serum cholesterol and serum triglycerides were calculated by comparison with the simultaneous controls, for each concentration of the test compound used.

serum glucose = assay: Hypoglycaemic activity in diabetic mice; assay type: in vivo, Diabetic mice (strain C 57, black, MRI derived Obese/Obese); conditions: 200 mg/kg body weight per day orally for 3 days; 3 hours after last dose
Description: Hypoglycaemic Activity in Diabetic Mice
Diabetic mice (strain C 57, black, MRI derived Obese/Obese) of either sex each weighting between 45 and 70 g were given the test compound orally at a dose of 200 mg/kg body weight per day for 3 days. Three hours after the last dose the animals were weighed, anaesthetised with carbon dioxide and bled by cardiac puncture.
The serum glucose levels were assessed by the glucose-oxidase method of God-Perid.
Control groups (given doses of unmedicated tragacanth mucilage) were included with each test.
The percentage reduction in the concentration of serum glucose was calculated by comparison with the simultaneous controls, for each of the test compounds used.

[2] = system: Smooth muscle cells from explants of pig thoracic aorta; assay: Aortic smooth muscle cell proliferation inhibiting activity; assay type: cell-based; conditions: Sus scrofa, 168 h, 5 μg/ml medium; six or seven day incubation; each value mean of four dishes
Description: Aortic smooth muscle cell proliferation inhibiting activity
Smooth muscle cells were grown in culture from explants of pig thoracic aorta, using Dulbecco's Modified Eagles (DME) Medium containing 20% foetal calf serum (FCS) and antibiotics. The cells were incubated at 37° C. in an atmosphere of 95% air and 5% carbon dioxide. At confluency the cells were routinely subcultured by trypsinising and replating at approximately one third of their confluent density in DME Medium containing 10% FCS and antibiotics.
The smooth muscle cells were plated out at densities of 100,000-200,000 cells per 35×10 mm Falcon dish in 2 ml DME Medium containing 10% FCS and antibiotics. After 24 hours, when the cells had attached to the dishes, the medium was replaced with 2 ml DME Medium containing 1% FCS and antibiotics. The cultures were incubated for a further three days to allow the cells to become quiescent (i.e. no longer undergoing cell division). The medium was then replaced by 2 ml control or test medium. The test medium consisted of DME Medium (containing 10% FCS and antibiotics) and the compound to be tested at a concentration of 5 μg/ml medium. The compounds were pre-dissolved in acetone such that the final concentration of acetone in the medium was 0.2% (v/v). The control medium consisted of DME Medium (containing 10% FCS and antibiotics) and acetone at 0.2% (v/v) concentration. After three days incubation in test or control medium, the medium was replaced with fresh test or control medium and the cells incubated for a further three or four days. At the end of the six or seven day incubation period cell numbers were determined by trypsinising the cells and counting the cell suspension in a Coulter counter.
All results in Table II hereafter represent the mean value for four dishes of cells. Percentage inhibition of proliferation was calculated using the following formula: [formula] where S=Mean cell number per dish at start of experiment (upon addition of control or test medium).
T=Mean cell number per dish in test cultures at completion of experiment.
C=Mean cell number per dish in control cultures at completion of experiment.

[3] = read-out: % change in serum cholesterol compared with control
[4] = read-out: % change in serum triglycerides compared with control

Structure (SMILES)	change in vivo at 0.2 % strength [1, 3] [%]	change in vivo at 0.2 % strength [1, 4] [%]	further results
CCCCCCCCCCCC1CNc2cc(C(=O)O)ccc21 (racemic) [Compound BXX, (RS)-3-(n-undecyl)indoline-6-carboxylic acid]	-10	-39	% change in serum glucose compared with control (serum glucose): -9%
CCCCCCCc1cc2ccc(C(=O)OCC)cc2[nH]1 [Compound AJJ, ethyl 2-(n-heptyl)indole-6-carboxylate]	-8	6	inhibition at 5 µg/mL [2]: 45%
CCCCCCCc1cc2cc(C(=O)OC)ccc2[nH]1 [Compound ASS, methyl 2-(n-heptyl)indole-5-carboxylate]	-2	-20	inhibition at 5 µg/mL [2]: 36%
CCCCCCCCCCCc1[nH]c2ccc(C(=O)O)cc2c1C [Compound CQQ, 2-(n-undecyl)-3-methylindole-5-carboxylic acid]			% change in serum glucose compared with control (serum glucose): -40%
CCCCCCCCCCCCCCCc1cc2cc(C(=O)O)ccc2[nH]1 [Compound G, 2-(n-pentadecyl)indole-5-carboxylic acid]			inhibition at 5 µg/mL [2]: 51%; change in vivo at 0.03 % strength [1, 3]: -7%; change in vivo at 0.03 % strength [1, 4]: -41%
CCCCCCCCCCCCCCc1cc2cc(C(=O)O)ccc2[nH]1 [Compound NN, 2-(n-tetradecyl)indole-5-carboxylic acid]	-39	-73	inhibition at 5 µg/mL [2]: 76%
CCCCCCCCCCCCCCCCCCCc1cc2cc(C(=O)O)ccc2[nH]1 [Compound PP, 2-(n-nonadecyl)indole-5-carboxylic acid]	-13	-41	
CCCCCCCc1cc2cc(C(=O)O)ccc2[nH]1 [Compound Q, 2-(n-heptyl)indole-5-carboxylic acid]	-10	-14	
CCCCCCCCCCCCCCCCCCCCCCCc1cc2cc(C(=O)O)ccc2[nH]1 [Compound QQ, 2-(n-tricosyl)indole-5-carboxylic acid]	-16	-36	
CCCCCCCc1cc2ccc(C(=O)O)cc2[nH]1 [Compound R, 2-(n-heptyl)indole-6-carboxylic acid]	-12	-18	
CCCCCCCCCCCCc1cc2ccc(C(=O)O)cc2[nH]1 [Compound S, 2-(n-dodecyl)indole-6-carboxylic acid]	-26	-52	
CCCCCCCCCCCCCCc1cc2ccc(C(=O)O)cc2[nH]1 [Compound SS, 2-(n-tetradecyl)indole-6-carboxylic acid]	-14	3	
CCCCCCCCCCCCCCCCCCc1cc2cc(C(=O)O)ccc2[nH]1 [Compound T, 2-(n-octadecyl)indole-5-carboxylic acid]	-43	-67	inhibition at 5 µg/mL [2]: 30%; change in vivo at 0.1 % strength [1, 3]: -45%; change in vivo at 0.1 % strength [1, 4]: -78%
CCCCCCCCCCCCCCCCc1cc2ccc(C(=O)O)cc2[nH]1 [Compound TT, 2-(n-hexadecyl)indole-6-carboxylic acid]	-8	-6	inhibition at 5 µg/mL [2]: 61%
CCCCCCCCCCCc1cc2cc(C(=O)OCC)ccc2[nH]1 [Compound U, ethyl 2-(n-undecyl)indole-5-carboxylate]	-13	-39	
CCCCCCCCCCCCCCCCCCCCc1cc2ccc(C(=O)O)cc2[nH]1 [Compound UU, 2-(n-eicosyl)indole-6-carboxylic acid]	-15	-29	
CCCCCCCCCCCCCCCCCCc1cc2ccc(C(=O)O)cc2[nH]1 [Compound V, 2-(n-octadecyl)indole-6-carboxylic acid]	3	-1	
CCCCCCCCCCCc1cc2c(C(=O)O)cccc2[nH]1 [Compound W, 2-(n-undecyl)indole-4-carboxylic acid]	-3	22	
CCCCCCCCCc1cc2cccc(C(=O)O)c2[nH]1 [Compound WW, 2-(n-nonyl)indole-7-carboxylic acid]	-3	45	
CCCCCCCCc1cc2cc(C(=O)O)ccc2[nH]1 [Compound X, 2-(n-octyl)indole-5-carboxylic acid]	-18	-25	
CCCCCCCCCCCc1cc2cccc(C(=O)O)c2[nH]1 [Compound XX, 2-(n-undecyl)indole-7-carboxylic acid]	-2	8	
CCCCCCCCCCCCc1cc2cc(C(=O)O)ccc2[nH]1 [Compound Y, 2-(n-dodecyl)indole-5-carboxylic acid]	-30	-80	change in vivo at 0.1 % strength [1, 3]: -20%; change in vivo at 0.1 % strength [1, 4]: -51%
CCCCCCCCCc1cc2c(C(=O)O)cccc2[nH]1 [Compound Z, 2-(n-nonyl)indole-4-carboxylic acid]	-14	-14	
CCCCCCCCCCCCCCCc1cc2ccc(C(=O)O)cc2[nH]1 [D sodium salt]			change in vivo at 0.1 % strength [1, 3]: -10%; change in vivo at 0.1 % strength [1, 4]: -18%
